Laboratory results: patent US20100016285A1, “HETEROCYCLIDENE-N-(ARYL) ACETAMIDE DERIVATIVE” (MOCHIDA PHARMACEUTICAL CO., LTD., priority 2007, published 2010)

molecular target: T1, human TRPV1 (Homo sapiens, UniProt Q8NER1); experiment: Capsaicin-induced Ca influx in transformed CHO cells, FDSS-6000 (b-1), A2 value; type: cell-based; conditions: concentration shifting the capsaicin concentration-reaction curve two times rightward; CHO cells expressing TRPV1
T1 construct: expressed in transfected cells; host or cells: CHO-K1 cells, pCAGGS vector, clones selected by limiting dilution
T1 sequence (Q8NER1 whole entry): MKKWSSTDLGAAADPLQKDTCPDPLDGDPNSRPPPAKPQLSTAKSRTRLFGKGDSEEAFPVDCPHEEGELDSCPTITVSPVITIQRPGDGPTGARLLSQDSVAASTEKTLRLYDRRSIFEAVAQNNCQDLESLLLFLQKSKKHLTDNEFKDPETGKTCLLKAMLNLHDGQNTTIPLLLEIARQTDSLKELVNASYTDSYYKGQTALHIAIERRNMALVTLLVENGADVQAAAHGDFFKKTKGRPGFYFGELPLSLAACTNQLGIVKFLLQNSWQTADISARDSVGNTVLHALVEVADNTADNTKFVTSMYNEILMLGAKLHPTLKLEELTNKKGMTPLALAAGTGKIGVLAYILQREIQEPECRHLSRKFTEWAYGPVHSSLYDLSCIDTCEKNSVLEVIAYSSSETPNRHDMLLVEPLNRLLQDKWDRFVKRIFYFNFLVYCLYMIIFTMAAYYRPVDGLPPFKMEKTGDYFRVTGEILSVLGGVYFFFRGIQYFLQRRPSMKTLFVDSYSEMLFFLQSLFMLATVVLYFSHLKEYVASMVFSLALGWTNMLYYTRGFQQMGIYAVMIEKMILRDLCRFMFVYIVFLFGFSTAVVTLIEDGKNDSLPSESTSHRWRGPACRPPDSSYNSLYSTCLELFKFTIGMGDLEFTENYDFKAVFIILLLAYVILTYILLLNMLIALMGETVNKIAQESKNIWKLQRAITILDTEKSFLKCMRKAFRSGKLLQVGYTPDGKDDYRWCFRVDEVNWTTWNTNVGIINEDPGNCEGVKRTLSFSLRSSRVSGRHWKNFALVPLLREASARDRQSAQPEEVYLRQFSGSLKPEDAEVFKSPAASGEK
Description: (1) Measurement of Capsaicin-Induced Ca Influx in a Transformed CHO Cell Line Expressing Human TRPV1
(a) Establishment of a Transformed CHO Cell Line Expressing Human and Rat TRPV1
Human and rat vanilloid receptor 1 (hTRPV1 and rTRPV1) cDNA was cloned from human brain and rat dorsal root ganglion, respectively. The cloned TRPV1 cDNA was incorporated in a pCAGGS vector. The vector was introduced to a CHO-K1 cell line, thus performing transformation. Clones obtained by limiting dilution were stimulated with capsaicin. Clones with a high responsiveness were selected using an increase in the Ca concentration as an indicator. The selected clones were used for the following experiment.
(b-1) Measurement of Ca Influx using FDSS-6000
The transformed CHO cells expressing human or rat TRPV1 were seeded in a 96-well plate (with black walls and transparent bottoms, manufactured by Greiner) at a density of 40,000 cells per well. The cells were cultured at 37° C. in 5% CO2 atmosphere for one night. A loading solution of FLIPR Calcium 3 assay kit (manufactured by Molecular Devices Corporation) containing 2.5 mmol/L of probenecid was then added to each of the wells in the same amount as the culture medium, and the cells were cultured at 37° C. for 60 minutes. For three minutes after the cells were stimulated with capsaicin (1 nmol/L to 1 μmol/L), the change of the intracellular Ca concentration was measured using FDSS-6000 (λex: 480 nm, λem: […], manufactured by Hamamatsu Photonics K.K.). The integrated values of the increase rate of the intracellular Ca concentration were calculated for a group treated with the compounds of the present invention and a group treated with a vehicle, thus allowing capsaicin concentration-reaction curves to be obtained. A concentration (A2 value) of each of the compounds of the present invention, at which the capsaicin concentration-reaction curve obtained when the cells were treated with the vehicle was shifted two times rightward, was calculated. The inhibitory effects of the test compounds were compared using this value as an indicator.

SMILES	A2 value
O=C(/C=C1\CCCOc2cc(C(F)(F)F)ccc21)Nc1ccc2c(c1)NC(=O)C(N1CCCOCC1)C2 (stereo not drawn) [EXAMPLE 53, (E)-2-(8-trifluoromethyl-3,4-dihydrobenzo[b]oxepin-5(2H)-ylidene)-N-(3-([1,4]oxazepan-4-yl)-3,4-dihydro-2(1H)-quinolinon-7-yl)acetamide]	A (A2 value of less than 100 nM)
CN1CC(=O)Nc2cccc(NC(=O)/C=C3\CCCOc4cc(C(F)(F)F)ccc43)c21 [EXAMPLE 22, (E)-2-(8-trifluoromethyl-3,4-dihydrobenzo[b]oxepin-5(2H)-ylidene)-N-(3,4-dihydro-4-methyl-2 (1H)-quinoxalinon-5-yl)acetamide]	A (A2 value of less than 100 nM)
O=C(/C=C1\CCCOc2cc(C(F)(F)F)ccc21)Nc1cccc2c1OCC(=O)N2 [EXAMPLE 20, (E)-2-(8-trifluoromethyl-3,4-dihydrobenzo[b]oxepin-5(2H)-ylidene)-N-(2H-1,4-benzoxazin-3(4H)-on-8-yl)acetamide]	A (A2 value of less than 100 nM)
CN1C(=O)CCc2ccc(NC(=O)/C=C3\CC(C)(C)Oc4cc(C(F)(F)F)ccc43)cc21 [EXAMPLE 25, (E)-2-(7-trifluoromethyl-2,2-dimethylchroman-4-ylidene)-N-(1-methyl-3,4-dihydro-2(1H)-quinolinon-7-yl)acetamide]	A (A2 value of less than 100 nM)
O=C(/C=C1\CCCOc2cc(C(F)(F)F)ccc21)Nc1ccc2c(c1)NS(=O)(=O)CC2 [Example 59, (E)-2-(8-trifluoromethyl-3,4-dihydrobenzo[b]oxepin-5(2H)-ylidene)-N-(2,2-dioxo-3,4-dihydro-(1H)-2,1-benzothiazin-7-yl)acetamide]	A (A2 value of less than 100 nM)
O=C(/C=C1\CCCOc2cc(C(F)(F)F)ccc21)Nc1ccc2c(c1)NC(=O)C[S+]2[O-] (stereo not drawn) [Example 5, (E)-2-(B-trifluoromethyl-3,4-dihydrobenzo[b]oxepin-5(2H)-ylidene)-N-(1-oxo-2H-benzo[1,4]thiazin-3(4H)-on-6-yl)acetamide]	B (A2 value of 100 nM or more)
O=C(/C=C1\CCCOc2cc(C(F)(F)F)ccc21)Nc1ccc2c(c1)NS(=O)(=O)NC2 [EXAMPLE 17, (E)-2-(8-trifluoromethyl-3,4-dihydrobenzo[b]oxepin-5(2H)-ylidene)-N-(3,4-dihydro-2,2-dioxo-1-H-2,1,3-benzothiadiazin-7-yl)acetamide]	A (A2 value of less than 100 nM)
O=C(/C=C1\NCCOc2cc(C(F)(F)F)ccc21)Nc1ccc2c(c1)NC(=O)CC2 [EXAMPLE 27, (Z)-2-(8-trifluoromethyl-3,4-dihydrobenzo[f][1,4]oxazepin-5(2H)-ylidene)-N-(3,4-dihydroquinolin-2(1H)-on-7-yl)acetamide]	A (A2 value of less than 100 nM)
O=C(/C=C1\CCCOc2cc(C(F)(F)F)ccc21)Nc1ccc2c(c1)NC(=O)N(Cc1ccccc1)C2 [EXAMPLE 38, (E)-2-(8-trifluoromethyl-3,4-dihydrobenzo[b]oxepin-5(2H)-ylidene)-N-(3-benzyl-3,4-dihydro-2(1H)-quinazolinon-7-yl)acetamide]	A (A2 value of less than 100 nM)
O=C1CNc2cccc(NC(=O)/C=C3\CCCOc4cc(C(F)(F)F)ccc43)c2C1 [EXAMPLE 36, (E)-2-(8-trifluoromethyl-3,4-dihydrobenzo[b]oxepin-5(2H)-yliden)-N-(3-oxo-1,2,3,4-tetrahydroquinolin-5-yl)acetamide]	A (A2 value of less than 100 nM)
O=C(/C=C1\CCCOc2cc(C(F)(F)F)ccc21)Nc1ccc2cc(N3CCOCC3)c(=O)[nH]c2c1 [Example 58, (E)-2-(8-trifluoromethyl-3,4-dihydrobenzo[b]oxepin-5(2H)-ylidene)-N-(3-(4-morpholinyl)-2(1H)-quinolinon-7-yl)acetamide]	A (A2 value of less than 100 nM)
O=C(/C=C1\CCCOc2cc(C(F)(F)F)ccc21)Nc1ccc2c(c1)NC(=O)CS2 [Example 4, (E)-2-(8-trifluoromethyl-3,4-dihydrobenzo[b]oxepin-5(2H)-ylidene)-N-(2H-benzo[1,4]thiazin-3(4H)-on-6-yl)acetamide]	A (A2 value of less than 100 nM)
CC1(CO)Nc2ccc(NC(=O)/C=C3\CCCOc4cc(C(F)(F)F)ccc43)cc2NC1=O (stereo not drawn) [EXAMPLE 40, (E)-2-(8-trifluoromethyl-3,4-dihydrobenzo[b]oxepin-5(2H)-ylidene)-N-(3-hydroxymethyl-3-methyl-3,4-dihydro-2(1H)-quinoxalinon-7-yl)acetamide]	A (A2 value of less than 100 nM)

Continued, values first:

A2 value	SMILES
A (A2 value of less than 100 nM)	COCCN1Cc2ccc(NC(=O)/C=C3\CCCOc4cc(C(F)(F)F)ccc43)cc2NC1=O [EXAMPLE 16, (E)-2-(8-trifluoromethyl-3,4-dihydrobenzo[b]oxepin-5(2H)-ylidene)-N-(3-(2-methoxyethyl)-3,4-dihydro-2(1H)-quinazolinon-7-yl)acetamide]
A (A2 value of less than 100 nM)	COCCN(CCOC)C1Cc2ccc(NC(=O)/C=C3\CCCOc4cc(C(F)(F)F)ccc43)cc2NC1=O (stereo not drawn) [EXAMPLE 44]
A (A2 value of less than 100 nM)	O=C(/C=C1\CCCOc2cc(C(F)(F)F)ccc21)Nc1ccc2c(c1)NC(=O)CN2 [Example 7, (E)-2-(8-trifluoromethyl-3,4-dihydrobenzo[b]oxepin-5(2H)-ylidene)-N-(3,4-dihydro-2(1H)-quinoxalinon-7-yl)acetamide]
A (A2 value of less than 100 nM)	CC1(C)Cc2ccc(NC(=O)/C=C3\CCCOc4cc(C(F)(F)F)ccc43)cc2NC1=O [EXAMPLE 29, (E)-2-(8-trifluoromethyl-3,4-dihydrobenzo[b]oxepin-5(2H)-ylidene)-N-(3,3-dimethyl-3,4-dihydro-2(1H)-quinolinon-7-yl)acetamide]
A (A2 value of less than 100 nM)	O=C(/C=C1\CCCOc2cc(C(F)(F)F)ccc21)Nc1ccc2c(c1)NC(=O)OC2 [EXAMPLE 12, (E)-2-(8-trifluoromethyl-3,4-dihydrobenzo[b]oxepin-5(2H)-ylidene)-N-(1,4-dihydro-2H-3,1-benzoxadin-2-on-7-yl)acetamide]
A (A2 value of less than 100 nM)	O=C(/C=C1\CCCOc2cc(C(F)(F)F)ccc21)Nc1ccc2c(c1)NC(=O)C(N1CC[C@@H](O)C1)C2 (stereo partly drawn) [EXAMPLE 48, (E)-2-(8-trifluoromethyl-3,4-dihydrobenzo[b]oxepin-5(2H)-ylidene)-N-(3-((3S)-hydroxypyrrolidin-1-yl)-3,4-dihydro-2(1H)-quinolinon-7-yl)acetamide]
A (A2 value of less than 100 nM)	CC1(C)Oc2ccc(NC(=O)/C=C3\CCCOc4cc(C(F)(F)F)ccc43)cc2NC1=O [Example 1, (E)-2-(8-trifluoromethyl-3,4-dihydrobenzo[b]oxepin-5(2H)-ylidene)-N-(2,2-dimethyl-4H-benzo[1,4]oxazin-3-on-6-yl)acetamide]
A (A2 value of less than 100 nM)	O=C(/C=C1\CCCOc2cc(C(F)(F)F)ccc21)Nc1ccc2c(c1)NC(=O)C(N1CCSCC1)C2 (stereo not drawn) [EXAMPLE 54, (E)-2-(B-trifluoromethyl-3,4-dihydrobenzo[b]oxepin-5(2H)-ylidene)-N-(3-(4-thiomorpholinyl)-3,4-dihydro-2(1H)-quinolinon-7-yl)acetamide]
